Legend:
IGFBP7 = experiment: CLP sepsis-associated AKI model: renal IGFBP7 expression, day 14; format: in vivo, Balb/c mice
Source text: (§1) Balb/c mice (20-24 weeks old, male and female, Charles River Labs) were used. Mice were subjected to cecal ligation and puncture surgery (CLP) in accordance with methods reported by Rittirsch et al. (Rittirsch D, Huber-Lang M S, Flierd M A, Ward P A: Immunodesign of experimental sepsis by cecal ligation and puncture. Nature protocols 2009, 4(1):31-36). Specifically, Sepsis was induced by ligating 1 cm length of the cecum from the apex and two punctures with a 25-Gauge needle. Animals in the sham group had only laparotomy without any cecal punctures. Post-surgery treatment included 40 mL/kg Ringer's solution after surgery, and ceftriaxone (25 mg/kg), metronidazole (12.5 mg/kg), and buprenorphine (0.05 mg/kg), every 12 hours administered intraperitoneally (i.p.) for 3 days. Septic animals were randomly divided into four groups to receive a seven-day UPHD186 (50 mg/kg/day, i.p.) or vehicle (20% Cyclodextrin-2% DMSO in PBS, i.p.) treatment, starting from 48 hours or 96 hours post-CLP. To determine treatment efficacy, time-serial blood samples (approx. 10 μL) were collected through animals' saphenous vein on the days before/after the treatment session. All mice were followed for survival and sacrificed at the 3rd day post-treatment or the endpoint day 14 to collect kidneys and blood samples.
The left kidney was flushed with 10 mL ice-cold PBS, 10 mL 10% formalin through the left ventricle immediately after euthanasia, and the kidney was collected. For immunofluorescence staining, half of the kidney was fixed in 10% formalin for 2 h on ice, incubated in 30% (vol/vol) sucrose at 4° C. overnight, snap frozen in OCT (Sakura FineTek), and cut into 7-μm sections. […] Semiquantitative renal histology injury scoring was assessed by an investigator blinded to group assignment and the percentage of fibrosis per area was quantified using ImageJ (https://imagej.nih.gov/ij/; National Institutes of Health).
Renal expression/location of the kidney stress marker insulin-like growth factor-binding protein 7 (IGFBP7) was measured at Day-14 kidneys. […]

[1] = system: septic mice (cecal ligation and puncture); experiment: CLP sepsis-associated AKI model: sepsis survival to day 14; format: in vivo, Balb/c mice; conditions: 50 mg/kg/day i.p. 7 days
Source text: as §1, with “To determine treatment efficacy, time-serial blood samples (approx. 10 μL) were collected through animals' saphenous vein on the days before/after the treatment session. All mice were followed for survival and sacrificed at the 3rd day post-treatment or the endpoint day 14 to collect kidneys and blood samples.” left out
Graph and statistical analyses were performed using GraphPad Prism 8 (GraphPad Software). […] Tukey's test was used to determine significance of differences among multiple groups and t test between two groups; survival rates were analyzed using log-rank Mantel-Cox test. […]

[2] = system: renal mRNA of inflammation, kidney injury, matrix remodeling, cell cycle, proliferation and fibrosis genes; experiment: CLP sepsis-associated AKI model: renal mRNA expression (quantitative PCR); format: in vivo, Balb/c mice
Source text: as §1
Total tissue RNA was isolated using TRIzol™ reagent (Life Technologies), DNase kit (Invitrogen), and converted into complementary DNA with High-Capacity cDNA Reverse Transcription Kits (Applied Biosystems). Quantitative polymerase chain reaction was performed on a Mx3000PTM system (Agilent Technologies) using primers (Table 1) and SYBR® Select Master Mix (2×) (Applied Biosystems). The expression of each target gene was assayed in duplicate and presented as fold change normalized by that of the endogenous control gene, gapdh expression.
Kidney samples were examined at mRNA levels for genes controlling inflammation (nfκb, ccl20, traf1, traf2, icam), kidney injury (kim1), and matrix remodeling markers (lox, loxl1). Septic animals had higher levels of gene expression compared to sham controls (FIG. 4). […] (FIG. 3D).
Kidney samples on day 14 (following CLP) were examined for mRNA levels for treatment effects on cell cycle regulation (cdkn1a), proliferation (ki67), and pro-fibrosis genes (plod2, fsp1, col1a1). Septic animals had higher levels of fsp1 and col1a1 expressions compared to sham controls (FIG. 7). Early treatment with UPHD186 further increased fsp1 (fold-increase, 3.3±1.3 vs. corresponding CLP+vehicle controls 2.2±1.1, P<0.05), whereas delayed treatment promoted ki67 and inhibited col1a1 expression (fold-increase, ki67: 1.6±0.7 vs. corresponding controls 1.0±0.5, P<0.01; col1a1, 2.2±0.9 vs. 3.7±2.4, P<0.05) (FIG. 5C). Thus, pro-fibrotic gene expression was increased in the recovery phase and early treatment further aggravated these changes; whereas delayed treatment promoted proliferation and attenuated fibrosis.

[3] = CLP sepsis-associated AKI model: circulating creatinine; format: in vivo, Balb/c mice; conditions: early and delayed treatment regimens
Source text: as §1, with “samples. […]” for “samples.”

[4] = system: renal fibrosis and histology injury; experiment: CLP sepsis-associated AKI model: renal histology (Masson's trichrome, hematoxylin & eosin), day 14; format: in vivo, Balb/c mice
Source text: as §1
The left kidney was flushed with 10 mL ice-cold PBS, 10 mL 10% formalin through the left ventricle immediately after euthanasia, and the kidney was collected. For immunofluorescence staining, half of the kidney was fixed in 10% formalin for 2 h on ice, incubated in 30% (vol/vol) sucrose at 4° C. overnight, snap frozen in OCT (Sakura FineTek), and cut into 7-μm sections. Sections were treated with heated citrate (Antigen Unmasking Solution, Vector Laboratories), blocked in 10% (vol/vol) normal goat serum (Vector Laboratories) in 0.3M glycine-PBST for 1 h RT, incubated with primary antibodies at 4° C. overnight, and then corresponding secondary antibodies (Jackson ImmunoResearch) in PBS containing 10% of the blocking solution for 1 h RT. Stained sections were mounted in mounting Medium with DAPI (Vectashield H-1000, Vector Laboratories), and stored at −20° C. until observed under confocal microscopy (Fluoview 1000, Olympus). Three washes with PBST were performed between each step. […] Semiquantitative renal histology injury scoring was assessed by an investigator blinded to group assignment and the percentage of fibrosis per area was quantified using ImageJ (https://imagej.nih.gov/ij/; National Institutes of Health). […]

[5] = system: hemin treated kidney organoids; experiment: Hemin-induced injury of kidney organoids: collagen hybridizing peptide (CHP) staining; format: cell-based, human; conditions: 25 μM hemin two days, then 10 days with 1 μM, 3 μM, and 9 μM compound
Description: A simple bioreactor-based method for growing renal organoids for long periods of time is provided, resulting in tissue with a high degree of maturation. Hemin-induced acute kidney injury produced by the oxidation of the heme of hemoglobin and myoglobin, causing oxidative stress and inflammation. […] These observations indicate that the kidney organoid model of AKI provides a valuable new platform to validate novel compounds in the setting of human AKI.
Organoids were prepared essentially as described in Przepiorski A, Sander V, Tran T, Hollywood J A, Sorrenson B, Shih J H, Wolvetang E J, McMahon A P, Holm™ and Davidson A J. A Simple Bioreactor-Based Method to Generate Kidney Organoids from Pluripotent Stem Cells. Stem Cell Reports. 2018; 11:470-484. As shown in FIG. 8 (A), induced pluripotent stem cells (iPSCs) were cultured for three 3 days in with 8 μM of the Wnt agonist CHIR-99021 (CHIR, e.g., 6-[[2-[[4-(2,4-dichlorophenyl)-5-(5-methyl-1H-imidazol-2-yl)-2-pyrimidinyl]amino]ethyl] amino]-3-pyridinecarbonitrile) in BPEL (BSA poly(vinyl alcohol) essential lipids)), and were then cultured for an additional 11 days in DMEM with Knockout™ Serum Replacement (KOSR). At 14 days, DMEM F12 medium containing 25 μM Hemin (Sigma, H9039) is applied for two days, followed by 10 days with 1 μM, 3 μM, and 9 μM UPHD186 in DMEM with 10% KOSR. UPHD25 was evaluated in the same manner. […]

[6] = system: F4/80+ mononuclear cells in the kidneys; experiment: CLP sepsis-associated AKI model: kidney monocytes and their phenotype (immunofluorescence), day 3 post-treatment; format: in vivo, Balb/c mice; conditions: for F4/80+ cell numbers in the kidneys: 50 mg/kg/day i.p.
Source text: as §1
The left kidney was flushed with 10 mL ice-cold PBS, 10 mL 10% formalin through the left ventricle immediately after euthanasia, and the kidney was collected. For immunofluorescence staining, half of the kidney was fixed in 10% formalin for 2 h on ice, incubated in 30% (vol/vol) sucrose at 4° C. overnight, snap frozen in OCT (Sakura FineTek), and cut into 7-μm sections. Sections were treated with heated citrate (Antigen Unmasking Solution, Vector Laboratories), blocked in 10% (vol/vol) normal goat serum (Vector Laboratories) in 0.3M glycine-PBST for 1 h RT, incubated with primary antibodies at 4° C. overnight, and then corresponding secondary antibodies (Jackson ImmunoResearch) in PBS containing 10% of the blocking solution for 1 h RT. Stained sections were mounted in mounting Medium with DAPI (Vectashield H-1000, Vector Laboratories), and stored at −20° C. until observed under confocal microscopy (Fluoview 1000, Olympus). Three washes with PBST were performed between each step. The primary antibodies were: goat anti-ICAM (R&D Systems), rabbit anti-Col1 (Novus Biologicals), rabbit anti-fibronectin (Abcam), rabbit anti-vimentin (Abcam), rat anti-F4/80 (Abcam), rabbit anti-iNOS (Abcam), and phalloidin (Thermo Fisher Scientific) was used for staining of the brush-boarder. For immunohistochemistry analysis, the infused kidney was fixed in 10% formalin at 4° C. overnight, embedded in paraffin, and cut into 5-μm sections. Hematoxylin & eosin and Masson's trichrome stain were performed. Semiquantitative renal histology injury scoring was assessed by an investigator blinded to group assignment and the percentage of fibrosis per area was quantified using ImageJ (https://imagej.nih.gov/ij/; National Institutes of Health).
Kidney samples collected at day 3 post-treatment were examined for presence numbers of monocytes in the kidney and their phenotypes (monocytes: F4/80^+, M1: F4/80^+iNOS^+, M2: F4/80^+MR^+).

IL6 = experiment: CLP sepsis-associated AKI model: circulating cytokine IL6 (ELISA); format: in vivo, Balb/c mice; conditions: early and delayed treatment regimens
Source text: as §1, with “samples. […]” for “samples.”

SMILES: O=C(CCCSc1ccccc1)Nc1ccccc1O [UPHD186, N-(2-hydroxyphenyl)-4-(phenylsulfanyl)butanamide]
- overall IGFBP7 renal expression, effect (IGFBP7; delayed treatment, day 14): no such effect
- secretory pattern of IGFBP7, effect (IGFBP7; early and delayed treatment regimens, day 14 (data not shown)): neither treatment regimens changed the secretory pattern of IGFBP7
- overall IGFBP7 renal expression (IGFBP7; early treatment, day 14, CLP 396.9±109.0): 674.1±190.5
- survival rate by day 14 ([1]; delayed treatment (96 h), vehicle 39%, P<0.01): 79%
- survival rate by day 14 ([1]; early treatment (48 h), vehicle 54%, P=0.32): 69%
- inflammation, kidney injury and matrix remodeling marker mRNA (nfκb, ccl20, traf1, traf2, icam, kim1, lox, loxl1), effect ([2]; delayed treatment, day 3 post-treatment, compared to CLP controls): no effect on any marker expressions
- ki67 renal mRNA ([2]; delayed treatment, day 14 after CLP, controls 1.0±0.5): 1.6±0.7 fold-increase
- col1a1 renal mRNA ([2]; delayed treatment, day 14 after CLP, controls 3.7±2.4): 2.2±0.9 fold-increase
- loxl1 renal mRNA ([2]; early treatment, day 3 post-treatment, CLP 10.5±5.7): 5.0±2.3 fold-increase
- icam1 renal mRNA ([2]; early treatment, day 3 post-treatment, CLP 25.3±4.1): 9.1±2.3 fold-increase
- traf2 renal mRNA ([2]; early treatment, day 3 post-treatment, CLP 32.5±6.9): 12.2±3.0 fold-increase
- traf1 renal mRNA ([2]; early treatment, day 3 post-treatment, CLP 51.5±9.1): 17.1±3.6 fold-increase
- cdkn1a renal mRNA, effect ([2]; early treatment, day 14 (FIG. 5C)): increased cdkn1a
- fsp1 renal mRNA ([2]; early treatment, day 14 after CLP, CLP+vehicle 2.2±1.1): 3.3±1.3 fold-increase
- circulating creatinine, treatment effect [3]: neither creatinine (FIG. 5B) nor cytokine IL6 (FIG. 6) were affected
- histology injury score ([4]; delayed treatment, vehicle 2.1±1.0, P=0.13): 1.4±1.0
- collagen volume fraction ([4]; delayed treatment, vehicle 26.2±7.6, P=0.08): 21.2±4.8%
- histology injury score ([4]; early treatment, CLP vehicle 1.7±0.9): 2.6±1.3
- collagen volume fraction ([4]; early treatment, CLP vehicle 28.4±4.3): 27.6±4.3%
- collagen (CHP staining), fibrosis [5]: reduced
- iNOS expression intensities (M1 marker) ([6]; delayed treatment (96 h post-CLP), CLP vehicle 3.1±1.4): 1.4±0.3
- F4/80+ cell numbers in the kidneys ([6]; delayed treatment (from 96 h post-CLP), CLP vehicle 52.4±32.9): 40.6±24.7 cells/field
- MR expression (M2 marker), treatment effect ([6]; early and delayed treatment groups): no treatment effects were observed
- iNOS expression intensities (M1 marker) ([6]; early treatment (48 h post-CLP), CLP vehicle 1.2±0.7): 2.7±0.3
- F4/80+ cell numbers in the kidneys ([6]; early treatment (from 48 h post-CLP), CLP vehicle 41.2±26.1): 15.7±7.7 cells/field
- circulating cytokine IL6, treatment effect (IL6): neither creatinine (FIG. 5B) nor cytokine IL6 (FIG. 6) were affected

SMILES: COC(=O)CCCSc1ccccc1 [UPHD25, methyl 4-(phenylsulfanyl)butanoate]
- collagen (CHP staining), fibrosis [5]: reduction of collagen
